This passage reports TGI and GI50 results from PubChem BioAssay (NCI).

Test systems include NCI-H23 lung; SN12C renal; SK-MEL-5 melanoma; UO-31 renal; RPMI-8226 leukemia; EKVX NSCLC; NCI-H226 lung; OVCAR-4 ovarian; CCRF-CEM leukemia; SNB-19 CNS.
Holding throughout (test): NCI anticancer screen, dose series, 48 h

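1) Cells in 96-well plates. 2) Compound, 48 h, 5 concentrations. 3) Linear interpolation between surrounding doses. 4) Unreached endpoint = highest concentration. Abbreviation: GI50, concentration required for 50% inhibition of growth. TGI denotes the concentration required for complete inhibition of growth.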 Some results are limits rather than exact numbers.

Take `CCN(CC)CCCNc1ncc(C)c2[nH]c3ccncc3c12`: the TGI with NCI-H23 lung is 34.6 µM; in the test with SN12C renal, 30.5 µM; in the test on SK-MEL-5 melanoma, 28.1 µM; in the test with UO-31 renal it was greater than 100 µM; in the test on RPMI-8226 leukemia, greater than 100 µM; with EKVX NSCLC, 63.3 µM. Further, the TGI is 20.3 µM in the test with NCI-H226 lung, 13.8 µM in the test with OVCAR-4 ovarian, greater than 71.5 µM in the test with CCRF-CEM leukemia and greater than 100 µM in the test on SNB-19 CNS.

In the case of `Nc1nc(Cl)cc(OCC2(CO)CC(OCc3ccccc3)C2)n1` (stereo not drawn), the GI50 is 36.5 µM with NCI-H23 lung; 76.5 µM with SN12C renal; 23.9 µM in the test on SK-MEL-5 melanoma; 40.1 µM in the test with UO-31 renal; 26.7 µM in the test with RPMI-8226 leukemia; 44.6 µM in the test with EKVX NSCLC. In addition, the GI50 in the test on NCI-H226 lung is 74 µM; in the test with OVCAR-4 ovarian it was 47.9 µM; in the test on CCRF-CEM leukemia it was 41.6 µM; in the test on SNB-19 CNS, 51.6 µM.

As for `COc1cc(/C=C/c2cc(/C=C/c3ccc(O)c(OC)c3)nc(N)n2)ccc1O`, the GI50 in the test with SN12C renal was 2.74 µM; in the test with SK-MEL-5 melanoma, 1.49 µM; in the test with UO-31 renal, 2.09 µM; with RPMI-8226 leukemia it was 1.29 µM; in the test with EKVX NSCLC it was 2.22 µM; in the test with NCI-H226 lung, 1.83 µM. Besides, the results for the GI50 in the test on OVCAR-4 ovarian and in the test with SNB-19 CNS were 1.71 µM and 1.81 µM, respectively. Further, the TGI was greater than 100 µM in the test with SN12C renal; 2.89 µM with SK-MEL-5 melanoma; 7.58 µM in the test with UO-31 renal; 4.18 µM with RPMI-8226 leukemia; 6.83 µM in the test with EKVX NSCLC; 4.34 µM in the test with NCI-H226 lung. The results for the TGI in the test on OVCAR-4 ovarian and in the test on SNB-19 CNS were 11.5 µM and 7.95 µM, respectively.

Consider `O=[N+]([O-])c1ccccc1NC1c2ccccc2Oc2ccccc21`, for which the GI50 in the test on NCI-H23 lung was 9.67 µM; with SN12C renal, 6.17 µM; in the test on SK-MEL-5 melanoma it was 3.44 µM; in the test on UO-31 renal, 7.46 µM; in the test on RPMI-8226 leukemia it was 5.86 µM; in the test with EKVX NSCLC it was 17.2 µM. The GI50 in the test with NCI-H226 lung was 5.91 µM; in the test on OVCAR-4 ovarian, 8.21 µM; in the test on CCRF-CEM leukemia it was 4.44 µM; in the test on SNB-19 CNS, 4.35 µM. For the same compound, the TGI in the test on NCI-H23 lung, with SN12C renal, in the test on SK-MEL-5 melanoma, with UO-31 renal, in the test with RPMI-8226 leukemia and in the test with EKVX NSCLC was greater than 100 µM throughout. Further, the TGI in the test with NCI-H226 lung, in the test with OVCAR-4 ovarian, with CCRF-CEM leukemia and in the test with SNB-19 CNS was greater than 100 µM throughout.

For the compound `COC(=O)c1cccc(N[C@@H]2c3cc4c(cc3C(c3cc(OC)c(O)c(OC)c3)[C@H]3C(=O)OCC32)OCO4)c1` (stereo partly drawn), the TGI in the test on NCI-H23 lung was 4.01 µM; in the test with SK-MEL-5 melanoma it was 3.02 µM; with UO-31 renal it was 11.7 µM; in the test on RPMI-8226 leukemia, greater than 20.2 µM; in the test with EKVX NSCLC, greater than 26.6 µM; in the test on NCI-H226 lung, 3.6 µM. The TGI is greater than 100 µM in the test on OVCAR-4 ovarian, 5.23 µM with CCRF-CEM leukemia and greater than 63.4 µM in the test on SNB-19 CNS.

As for `N=c1c2c(=S)n(-c3ccccc3)c(=S)n(-c3ccccc3)c2nc(SCCCN2CCN(c3cccc(Cl)c3)CC2)n1-c1ccccc1`, the TGI in the test with NCI-H23 lung, with SK-MEL-5 melanoma, with RPMI-8226 leukemia, in the test with EKVX NSCLC, with NCI-H226 lung and in the test with OVCAR-4 ovarian was greater than 100 µM each time. The same compound came in with a TGI in the test with CCRF-CEM leukemia greater than 100 µM.

Turning to `O=C(O)CNc1ccc(C(=O)O)cc1`, the TGI in the test on NCI-H23 lung, in the test with SN12C renal, with SK-MEL-5 melanoma, with UO-31 renal, in the test with RPMI-8226 leukemia and in the test with EKVX NSCLC was greater than 100 µM each time. In addition, the TGI in the test on NCI-H226 lung, with OVCAR-4 ovarian, in the test with CCRF-CEM leukemia and in the test with SNB-19 CNS was greater than 100 µM in each case.

`Cc1ccc([N+](=O)[O-])cc1S(=O)(=O)Nc1ccc(C2=NNC(c3ccccc3O)C2)cc1` (stereo not drawn): the TGI with NCI-H23 lung is 67.7 µM; in the test with SN12C renal, 82.9 µM; in the test on SK-MEL-5 melanoma, 58.6 µM; in the test with UO-31 renal it was 79.2 µM; in the test with RPMI-8226 leukemia, greater than 100 µM; with EKVX NSCLC, 56.9 µM. The TGI in the test on NCI-H226 lung was greater than 100 µM; with OVCAR-4 ovarian, 63.8 µM; in the test on CCRF-CEM leukemia, greater than 100 µM; in the test with SNB-19 CNS, greater than 100 µM.

Regarding `CCCCCCCC/C=C\CCCCCCCC(=O)O`, the TGI with NCI-H23 lung was 146 µM; in the test with SN12C renal, 199 µM; in the test on SK-MEL-5 melanoma, greater than 282 µM; with UO-31 renal, 241 µM; in the test on RPMI-8226 leukemia, 277 µM; with EKVX NSCLC, 164 µM. Also, the TGI in the test on NCI-H226 lung was 227 µM; with OVCAR-4 ovarian, greater than 352 µM; in the test on CCRF-CEM leukemia it was 197 µM; with SNB-19 CNS, 252 µM.

Consider `CCNc1nnc(-c2nsc3ccccc23)s1`, for which the TGI in the test on NCI-H23 lung, in the test with SN12C renal, with SK-MEL-5 melanoma, with UO-31 renal, with RPMI-8226 leukemia and in the test on EKVX NSCLC was greater than 100 µM throughout. For the same compound, the TGI in the test with OVCAR-4 ovarian was greater than 100 µM; with CCRF-CEM leukemia it was greater than 100 µM; in the test on SNB-19 CNS, 45.6 µM.

As for `CC(=O)Oc1ccc2c(c1)oc1c3ccc(OC(C)=O)cc3n(C)c(=O)c21`, the TGI is greater than 100 µM in the test with NCI-H23 lung; 66 µM in the test on SN12C renal; 16.7 µM in the test on SK-MEL-5 melanoma; greater than 100 µM with UO-31 renal; 70.8 µM with EKVX NSCLC; 53.1 µM in the test on NCI-H226 lung. For the same compound, the TGI with CCRF-CEM leukemia and in the test with SNB-19 CNS was greater than 100 µM each time.

With `O=C1C=CC2=[N+]([O-])C(c3ccccc3)(c3ccccc3)C(=Nc3ccccc3)C2=C1`, the TGI in the test on NCI-H23 lung came to 5.64 µM; in the test with SN12C renal, 3.96 µM; with SK-MEL-5 melanoma it was 27.2 µM; with UO-31 renal, 5.33 µM; with RPMI-8226 leukemia it was 7.83 µM; with EKVX NSCLC, 14.1 µM. Also, the TGI with NCI-H226 lung was determined as 22.3 µM; in the test with OVCAR-4 ovarian, 3.28 µM; in the test with CCRF-CEM leukemia, 2.18 µM; with SNB-19 CNS, 31.6 µM.

Turning to `Cc1cc(C)c2c(c1)CC1(Cc3c(C)ccc(C)c3C1=O)C2=O` (stereo not drawn), the TGI in the test on SN12C renal, in the test on SK-MEL-5 melanoma, in the test on RPMI-8226 leukemia, with EKVX NSCLC, in the test on NCI-H226 lung and in the test on OVCAR-4 ovarian was greater than 100 µM in each case. The TGI with CCRF-CEM leukemia and in the test with SNB-19 CNS was greater than 100 µM throughout.

For `N=C(N)c1ccc(-c2ccc(-c3ccccc3)s2)cc1`, the GI50 in the test with NCI-H23 lung was 2 µM; with SN12C renal, 1.72 µM; in the test on SK-MEL-5 melanoma, 1.77 µM; with UO-31 renal, 1.48 µM; with EKVX NSCLC, 2.65 µM; in the test on NCI-H226 lung, 3.01 µM. The results for the GI50 with OVCAR-4 ovarian and in the test with CCRF-CEM leukemia were 1.59 µM and 1.97 µM, respectively. Besides, the TGI with NCI-H23 lung amounted to 4.53 µM; with SN12C renal, 3.41 µM; with SK-MEL-5 melanoma, 3.19 µM; in the test on UO-31 renal, 2.81 µM; in the test on EKVX NSCLC, 11.4 µM; in the test on NCI-H226 lung, 14.6 µM. Also, the TGI in the test on OVCAR-4 ovarian turned out to be 3.21 µM; in the test with CCRF-CEM leukemia, 4.57 µM.
